The first assay deals with T1, human TLR7 (Homo sapiens, UniProt Q9NYK1).
T1 sequence (Q9NYK1 27-1049): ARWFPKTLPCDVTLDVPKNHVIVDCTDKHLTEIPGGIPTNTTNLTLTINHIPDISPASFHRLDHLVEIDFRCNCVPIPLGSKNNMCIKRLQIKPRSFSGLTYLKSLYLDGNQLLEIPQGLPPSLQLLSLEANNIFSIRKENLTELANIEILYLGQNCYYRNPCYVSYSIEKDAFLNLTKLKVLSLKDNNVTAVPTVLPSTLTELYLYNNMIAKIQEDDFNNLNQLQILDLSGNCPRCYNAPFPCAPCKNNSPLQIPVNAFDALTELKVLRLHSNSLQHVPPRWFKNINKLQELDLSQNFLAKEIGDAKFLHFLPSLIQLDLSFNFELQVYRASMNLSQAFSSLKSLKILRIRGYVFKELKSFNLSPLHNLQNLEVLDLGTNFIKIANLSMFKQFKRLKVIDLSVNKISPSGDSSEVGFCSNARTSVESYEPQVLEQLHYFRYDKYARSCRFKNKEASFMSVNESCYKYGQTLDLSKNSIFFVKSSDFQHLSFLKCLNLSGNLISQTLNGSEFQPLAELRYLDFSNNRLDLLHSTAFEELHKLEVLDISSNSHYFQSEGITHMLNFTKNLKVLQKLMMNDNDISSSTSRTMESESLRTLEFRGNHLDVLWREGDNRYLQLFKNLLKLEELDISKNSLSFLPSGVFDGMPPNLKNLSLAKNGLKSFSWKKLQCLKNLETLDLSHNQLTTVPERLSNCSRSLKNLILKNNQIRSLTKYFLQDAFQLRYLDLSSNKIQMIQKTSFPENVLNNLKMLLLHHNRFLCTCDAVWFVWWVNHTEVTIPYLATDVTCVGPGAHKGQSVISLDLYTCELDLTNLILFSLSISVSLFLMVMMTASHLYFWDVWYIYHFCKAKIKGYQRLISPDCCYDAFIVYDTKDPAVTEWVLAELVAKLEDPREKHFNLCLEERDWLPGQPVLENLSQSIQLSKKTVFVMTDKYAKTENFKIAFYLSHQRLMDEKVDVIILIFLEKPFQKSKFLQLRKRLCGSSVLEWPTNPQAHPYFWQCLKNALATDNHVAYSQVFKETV
Nature of the assay: TLR7 inhibition reporter assay (HEK-Blue cells, SEAP reporter). The assay is classed as cell-based. Conditions: HEK-Blue cells overexpressing human TLR7; stimulated with gardiquimod 7.5 μM; 22 hour incubation; SEAP readout. As to the method: (§1) TLR7/8/9 Inhibition Reporter Assays
(§2) HEK-Blue™-cells (Invivogen) overexpressing human TLR7, TLR8 or TLR9 receptors were used for screening inhibitors of these receptors using an inducible SEAP (secreted embryonic alkaline phosphatase) reporter gene under the control of the […] minimal promoter fused to five NF-κB and AP-1-binding sites. Briefly, cells are seeded into Greiner 384 well plates (15000 cells per well for TLR7, 20,000 for TLR8 and 25,000 for TLR9) and then treated with test compounds in DMSO to yield a final dose response concentration range of 0.05 nM-50 μM. After a 30 minute compound pre-treatment at room temperature, the cells are then stimulated with a TLR7 ligand (gardiquimod at a final concentration of 7.5 μM), TLR8 ligand (R848 at a final concentration of 15.9 μM) or TLR9 ligand (ODN2006 at a final concentration of 5 nM) to activate NF-κB and AP-1 which induce the production of SEAP. After a 22 hour incubation at 37° C., 5% CO2, SEAP levels are determined with the addition of HEK-Blue™ Detection reagent (Invivogen), a cell culture medium that allows for detection of SEAP, according to manufacturer's specifications. The percent inhibition is determined as the % reduction in the HEK-Blue signal present in wells treated with agonist plus DMSO alone compared to wells treated with a known inhibitor.
Turning to `CC(C)CN1CCC(N2CCC(c3ccn4cc(-c5ccc(S(C)(=O)=O)cc5)nc4c3F)CC2)CC1` [Example 74, 8-fluoro-7-(1′-isobutyl-[1,4′-bipiperidin]-4-yl)-2-(4-(methylsulfonyl)phenyl)imidazo[1,2-a]pyridine], inhibition was half-maximal at 2400 nM (IC50).

`COCCN1CCN(c2ccc(-c3cc(C)c4nc(-c5ccc(OC)c(OC)c5)cn4c3)cc2)CC1` [Example 98, 2-(3,4-dimethoxyphenyl)-6-(4-(4-(2-methoxyethyl)piperazin-1-yl)phenyl)-8-methylimidazo[1,2-a]pyridine] gave an IC50 of 1000 nM.

Another assay has as its target T2, human TLR9 (Homo sapiens, UniProt Q9NR96).
T2 sequence (Q9NR96 26-1032): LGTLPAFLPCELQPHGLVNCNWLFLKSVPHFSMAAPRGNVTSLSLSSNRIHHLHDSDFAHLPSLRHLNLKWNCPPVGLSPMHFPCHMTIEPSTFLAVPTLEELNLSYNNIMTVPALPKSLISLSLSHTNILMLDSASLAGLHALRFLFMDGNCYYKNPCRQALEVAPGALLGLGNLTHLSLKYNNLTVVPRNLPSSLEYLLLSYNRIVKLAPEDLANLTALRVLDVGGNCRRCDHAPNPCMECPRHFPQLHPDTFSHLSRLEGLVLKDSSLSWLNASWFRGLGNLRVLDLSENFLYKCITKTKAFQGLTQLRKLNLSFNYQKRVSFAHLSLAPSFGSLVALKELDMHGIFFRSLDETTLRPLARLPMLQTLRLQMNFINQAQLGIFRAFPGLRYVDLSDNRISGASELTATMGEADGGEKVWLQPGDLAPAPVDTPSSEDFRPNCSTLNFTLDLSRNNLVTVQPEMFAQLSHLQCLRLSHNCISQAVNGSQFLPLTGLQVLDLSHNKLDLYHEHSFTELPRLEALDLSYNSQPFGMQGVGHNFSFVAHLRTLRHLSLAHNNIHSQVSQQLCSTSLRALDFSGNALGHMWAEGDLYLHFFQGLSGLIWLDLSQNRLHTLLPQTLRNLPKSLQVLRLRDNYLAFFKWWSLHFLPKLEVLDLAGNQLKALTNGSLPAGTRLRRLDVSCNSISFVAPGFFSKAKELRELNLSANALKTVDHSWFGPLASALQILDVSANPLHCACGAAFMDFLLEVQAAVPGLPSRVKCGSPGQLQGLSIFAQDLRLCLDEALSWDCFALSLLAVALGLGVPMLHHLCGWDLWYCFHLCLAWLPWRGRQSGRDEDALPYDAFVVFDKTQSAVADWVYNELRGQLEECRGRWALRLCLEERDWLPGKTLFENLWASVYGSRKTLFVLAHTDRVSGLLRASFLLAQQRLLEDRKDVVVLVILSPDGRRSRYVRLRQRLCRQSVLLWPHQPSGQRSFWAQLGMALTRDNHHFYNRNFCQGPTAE
Kind of assay: TLR9 inhibition reporter assay (HEK-Blue cells, SEAP reporter). The assay is classed as cell-based. Particulars: HEK-Blue cells overexpressing human TLR9; stimulated with ODN2006 5 nM; 22 hour incubation; SEAP readout. As to the method:
as §1, §2
Compound `CC(C)CN1CCC(N2CCC(c3ccn4cc(-c5ccc(S(C)(=O)=O)cc5)nc4c3F)CC2)CC1` [Example 74, 8-fluoro-7-(1′-isobutyl-[1,4′-bipiperidin]-4-yl)-2-(4-(methylsulfonyl)phenyl)imidazo[1,2-a]pyridine] showed an IC50 of 55 nM.

`Cc1cc(C2CCN(C3CC4CCC(C3)N4CC(C)C)CC2)cn2cc(-c3ccc(S(C)(=O)=O)cc3)nc12` (single isomer, unassigned) [Example 85, 6-(1-(8-isobutyl-8-azabicyclo[3.2.1]octan-3-yl)piperidin-4-yl)-8-methyl-2-(4-(methylsulfonyl)phenyl)imidazo[1,2-a]pyridine] came in with an IC50 of 27 nM.

The compound `COc1ccc(-c2nc3n(n2)CC(c2ccc(N4CCN(C(C)C)CC4)cc2)CC3C)cc1OC` (centres unmarked) [Example 144, 2-(3,4-dimethoxyphenyl)-6-(4-(4-isopropylpiperazin-1-yl)phenyl)-8-methyl-5,6,7,8-tetrahydro-[1,2,4]triazolo[1,5-a]pyridine] came in with an IC50 of 1460 nM.

Compound `Cc1cc(C2CCN(C3CCN(C4CCC4)CC3)CC2)cn2cc(-c3ccc(S(C)(=O)=O)cc3)nc12` [Example 91, 6-(1′-cyclobutyl-[1,4′-bipiperidin]-4-yl)-8-methyl-2-(4-(methylsulfonyl)phenyl) imidazo[1,2-a]pyridine] yielded an IC50 of 19 nM.

Consider `COc1ccc(-c2nc3c(C)cc(C4CC5CCC(C4)N5C4CCN(C5CC5)CC4)cn3n2)cc1OC` (centres unmarked) [Example 155, 6-(8-(1-cyclopropylpiperidin-4-yl)-8-azabicyclo[3.2.1]octan-3-yl)-2-(3,4-dimethoxyphenyl)-8-methyl-[1,2,4]triazolo[1,5-a]pyridine], for which the IC50 is 214 nM.

`COc1ccc(-c2nc3c(C)cc(C4CC5CCC(C4)N5C4CCN(C(C)C)CC4)cn3n2)cc1OC` (centres unmarked) [Example 156, 2-(3,4-dimethoxyphenyl)-6-(8-(1-isopropylpiperidin-4-yl)-8-azabicyclo[3.2.1]octan-3-yl)-8-methyl-[1,2,4]triazolo[1,5-a]pyridine] yielded an IC50 of 234 nM.

The compound `Cc1cc(-c2ccc(N3CC4CCC(C3)N4C(C)C)cc2)cn2nc(-c3ccc(S(C)(=O)=O)cc3)nc12` [Example 153, 6-(4-(8-isopropyl-3,8-diazabicyclo[3.2.1]octan-3-yl)phenyl)-8-methyl-2-(4-(methylsulfonyl)phenyl)-[1,2,4]triazolo[1,5-a]pyridine] gave an IC50 of 659 nM.

`CC1CC(c2ccc(N3CC4CCC(C3)N4C(C)C)cc2)Cn2nc(-c3ccc(S(C)(=O)=O)cc3)nc21` (centres unmarked) [Example 154, 6-(4-(8-isopropyl-3,8-diazabicyclo[3.2.1]octan-3-yl)phenyl)-8-methyl-2-(4-(methylsulfonyl)phenyl)-5,6,7,8-tetrahydro-[1,2,4]triazolo[1,5-a]pyridine]: the IC50 is 7740 nM.

`COc1ccc(-c2nc3ccc(C4CCN(C5CCN(C6CC6)CC5)CC4)cn3n2)cc1OC` [Example 164, 6-(1′-cyclopropyl-[1,4′-bipiperidin]-4-yl)-2-(3,4-dimethoxyphenyl)-[1,2,4]triazolo[1,5-a]pyridine] gave an IC50 of 390 nM.

For `COCCN1CCN(c2ccc(-c3cc(C)c4nc(-c5ccc(OC)c(OC)c5)cn4c3)cc2)CC1` [Example 98, 2-(3,4-dimethoxyphenyl)-6-(4-(4-(2-methoxyethyl)piperazin-1-yl)phenyl)-8-methylimidazo[1,2-a]pyridine], the IC50 was determined as 456 nM.

Compound `CS(=O)(=O)c1ccc(-c2cn3cc(C4CCN(C5CCN(C6CC6)CC5)CC4)c(F)cc3n2)cc1` [Example 124, 6-(1′-cyclopropyl-[1,4′-bipiperidin]-4-yl)-7-fluoro-2-(4-(methylsulfonyl)phenyl) imidazo[1,2-a]pyridine] came in with a half-inhibitory concentration (IC50) of 158 nM.

Regarding `Cc1cc(C2CCN(C3CCN(CC4CCC4)CC3)CC2)cn2cc(-c3ccc(S(C)(=O)=O)cc3)nc12` [Example 93, 6-(1′-(cyclobutylmethyl)-[1,4′-bipiperidin]-4-yl)-8-methyl-2-(4-(methylsulfonyl)phenyl)imidazo[1,2-a]pyridine], 83 nM corresponded to half-maximal inhibition (IC50).

Regarding `COc1ccc(-c2nc3ccc(C4CCN(C5CCN(C(C)C)CC5)CC4)cn3n2)cc1OC` [Example 165, 2-(3,4-dimethoxyphenyl)-6-(1′-isopropyl-[1,4′-bipiperidin]-4-yl)-[1,2,4]triazolo[1,5-a]pyridine], 113 nM corresponded to half-maximal inhibition (IC50).

In turn, `COc1ccc(-c2nc3ccc(-c4ccc(N5CC6CCC(C5)N6C(C)C)cc4)cn3n2)cc1OC` [Example 166] showed a 50% inhibitory concentration (IC50) of 628 nM.

`COCCN1CCN(c2ccc(-c3cc(C)c4nc(-c5ccc(S(C)(=O)=O)cc5)cn4c3)cc2)CC1` [Example 105, 6-(4-(4-(2-methoxyethyl)piperazin-1-yl)phenyl)-8-methyl-2-(4-(methylsulfonyl)phenyl) imidazo[1,2-a]pyridine]: half-maximal inhibition (IC50) required 1000 nM.

Values taken from patent publication US12486267B2, “Imidazo[1,2-A]pyridine and [1,2,4]triazolo[1,5-A]pyridine derivatives as TLR9 inhibitors for the treatment of fibrosis” (BRISTOL-MYERS SQUIBB COMPANY, priority 2020, dated 2025).
